Results as given in article PMC11385693, “Synthesis of ferrocenyl benzimidazole derivatives as novel anti-Toxoplasma gondii agents” (New Journal of Chemistry, 2024).
“And” between values parts separate entries of the source, which are not always exact repeats. Identical values can stand only once.

Tests used:
Cyclic voltammetry = assay type: physicochemical
Description: Ferrocene is known to undergo reversible oxidation and reduction, cycling between its 3^+ ferrocenium and the 2^+ ferrocene (Fc) states.[49,50] This redox behaviour leads to the generation of reactive oxygen species (ROS) through Fenton like reactions, which can in turn lead to parasite death.[51–53] Cyclic voltammetry was used to determine if the synthesised ferrocenyl derivatives had the potential to have an impact on the redox status of the parasite cells. Two different scan rates (25 and 90 mV s^−1) were used to ensure the reliability of the results, compared to ferrocene alone.

HEK293T cell line = conditions: 25 μM, MTT 48 hours
Description: Human prostatic epithelial cells (PNT1A) were cultured in Rosewell Park Memorial Institute (RPMI) media supplemented with 10% heat inactivated FBS. Both cell lines were incubated at 37 °C with 5% CO2. Both cell lines were obtained from ATCC.
The cells were allowed to recover overnight before the addition of compounds.
Stock solutions of the test compounds in DMSO were prepared and serially diluted in DMSO in a 96 well plate. […] 10 μL of the test compounds in media was then pipetted into the plates containing cells in triplicate. The cells were then incubated with the test compounds for 48 hours. After incubation, 10 μL of previously prepared MTT reagent was added to each well followed by incubation of the plates for 4 hours. 100 μL of solubilising agent was then pipetted into each well, and the plates incubated overnight. After overnight incubation the plates were read using a BioTek SYNERGY HTX multimode plate reader at 595 nm. Graphpad Prism 9 software was used to plot dose–response and determine cell viability.

[1] = Aqueous stability studies (UV-vis monitoring, ESI-MS follow-up); assay type: physicochemical; conditions: PBS pH 7.4, HEPES pH 7.0 and acetate buffer pH 4.6; 37 °C, 18 hours, 50 μM
Description: The stability of complexes 14–17 in an aqueous environment was investigated. The stability experiments were performed in PBS (pH 7.4) and HEPES (pH 7.0) buffers, as well as in acidic acetate buffer (pH 4.6), by monitoring the UV-vis spectra of the compounds at 37 °C over an 18-hour period.
To further investigate the stability of 14, the PBS, HEPES and acetate buffer solutions were evaporated to dryness, and then analysed using electrospray ionisation mass spectrometry in the positive ionisation mode.
PBS and HEPES buffers were prepared as described above. An acetate buffer with a concentration of […] and a pH of 4.60 was prepared by dissolving 5.40 g (65.83 mmol) of sodium acetate in 50 mL of dH2O. The resulting solution was then titrated to a pH of 4.60 with glacial acetic acid and made up to 100 mL with dH2O.
1 mM stock solutions of the synthesised target compounds in MeOH were prepared. 1.90 mL of buffer (PBS, HEPES or acetate buffer) was pipetted into cuvettes followed by the addition 100 μL of test compound stock solutions, diluting them to a final concentration of 50 μM. The cuvettes were then stoppered, inverted to mix the solution, and placed in an Agilent Cary 3500 UV-vis spectrophotometer as fast as possible. Blank solutions in matched cuvettes were also prepared by adding 100 μL of MeOH to 1.9 mL of buffer. The solutions in all the cuvettes were stirred at 400 rpm ensure proper mixing. UV spectra were then recoded every 5 minutes for 18 hours with a spectral width of 200–1100 nm to monitor the stability of the test compounds.

[2] = tested on: RhΔKu80:mNeonGreen strain of T. gondii; experiment: microbe, parasite or virus in culture; assay type: cell-based, Toxoplasma gondii; conditions: T. gondii ΔKu80:mNeon in HFFs, 4 days, highest concentration 100 μM; NA = not active at the maximum tested concentration; three biological replicates in triplicate; read-out: EC50
Description: Growth inhibition assays were carried out using the RhΔKu80:mNeonGreen strain of T. gondii, which expresses the mNeonGreen fluorescent protein.[56] Parasite growth inhibition was determined by measuring the fluorescence emission of parasite growth in increasing concentrations of compounds of interest.
T. gondii ΔKu80:mNeon tachyzoites were grown in human foreskin fibroblasts (HFFs) with Dulbecco's modified Eagle's medium (DMEM) supplemented with 3% heat inactivated foetal bovine serum (D3) as the culturing medium. Cells and parasites were maintained at 37 °C and 5% carbon dioxide (CO2).
EC50s were calculated as previously described.[56] Briefly, T. gondii ΔKu80:mNeon parasites were counted by haemocytometer and diluted to 25 000 parasites per mL in 40 mL of D3 media, to give an infection of 5000 parasites per well. The media from a black clear bottomed 96 well plate containing HFFs was then aspirated. 200 μL of uninfected D3 media was added to the top and bottom rows of wells (A and H) to serve as blanks. 200 μL of T. gondii containing D3 media was then added to the remaining wells. The parasites were allowed 2 hours to invade host cells, after which test compounds were added.
The media from the infected 96 well plates was then aspirated and 100 μL of D3 media added to each well, excluding column 12. The first 4 wells of column 12 were filled with 300 μL of drug supplemented D3 media, while the next 4 wells were filled with 300 μL of D3 media supplemented with a different drug. The drug supplemented D3 media was then serially diluted 1 : 3 across the plate, stopping at column 2 and disposing of the media, leaving all wells with 100 μL of media. Finally, the plates were closed and incubated at 37 °C with 5% CO2 for 4 days. After 4 days the fluorescence of each well on the plates was read at 594 nm emission using a PHERAstar FS microplate reader. Graphpad Prism 9 software was used to plot dose–response and determine inhibition of parasite growth.

[3] = Turbidimetric solubility assay
Description: A single phosphate buffered saline (PBS) tablet (Sigma Aldrich) was dissolved in 200 mL of distilled water (dH2O) (25 °C) to obtain a PBS solution with 0.01 M phosphate buffer, 0.14 M NaCl and 0.003 M KCl.
Stock solutions of the compounds to be tested were prepared in DMSO at a concentration of 10 mM and filtered through syringe filters. Serial dilution of the stock solutions with DMSO was then carried out in a preparatory (prep) 96-well plate giving concentrations between 0.00 and 10.0 mM (0.00, 0.25, 0.50, 1.0, 2.0, 4.0, 8.0 and 10 mM). The solutions were then further diluted into 96-well assay plates containing DMSO, PBS or HEPES buffer by pipetting 4.00 μL of solution from the prep plate to the Assay plate containing 196 μL of DMSO or buffer, giving final concentrations between 0.00 and 200 μM (0.00, 5.00, 10.0, 20.0, 40.0, 80.0, 160 and 200 μM). The assay plates were incubated at 25.0 or 37.0 °C for two hours before their UV-vis absorbance was read at 620 nm with a SPECTROstar Nano microplate reader spectrophotometer. Blank readings were used to gain corrected readings by subtracting them from obtained absorbances for each compound concentration.

Structure (SMILES): O=C(NCCn1cnc2cccnc21)[c-]1cccc1.[Fe+2].c1cc[cH-]c1 [Compound 17]
- E 1/2 (Cyclic voltammetry; Run1, scan rate 25 mV s^−1): 620 mV
- ΔEp (Cyclic voltammetry; Run1, scan rate 25 mV s^−1): 79 mV
- E 1/2 (Cyclic voltammetry; Run2, scan rate 90 mV s^−1): 618 mV
- ΔEp (Cyclic voltammetry; Run2, scan rate 90 mV s^−1): 68 mV
- Cell survival / % cell viability (HEK293T cell line): 70%
- Change of UV-vis spectrum over time (aqueous stability) [1]: remained unchanged
- EC50 [2]: 17.5 µM
- Solubility range ([3]; HEPES (pH 7.0), 25 °C): 20-40 µM and 7-15 µg/mL
- Solubility class ([3]; HEPES (pH 7.0), 37 °C): poor (solubility <10 μg mL^−1 are considered to have poor solubility)
- Solubility range ([3]; HEPES (pH 7.0), 37 °C): 0-5 µM and 0–2 µg/mL
- Solubility range ([3]; PBS (pH7.4), 25 °C): 0-5 µM and 0-2 µg/mL
- Solubility range ([3]; PBS (pH7.4), 37 °C): 5-10 µM and 2-4 µg/mL
